Four molecules from PMC2992812 (The Biochemical journal, 2010) can be followed below.

The target of test [1] is T1, TRHR (Rattus norvegicus, UniProt Q01717).
T1 sequence (Q01717 1-412): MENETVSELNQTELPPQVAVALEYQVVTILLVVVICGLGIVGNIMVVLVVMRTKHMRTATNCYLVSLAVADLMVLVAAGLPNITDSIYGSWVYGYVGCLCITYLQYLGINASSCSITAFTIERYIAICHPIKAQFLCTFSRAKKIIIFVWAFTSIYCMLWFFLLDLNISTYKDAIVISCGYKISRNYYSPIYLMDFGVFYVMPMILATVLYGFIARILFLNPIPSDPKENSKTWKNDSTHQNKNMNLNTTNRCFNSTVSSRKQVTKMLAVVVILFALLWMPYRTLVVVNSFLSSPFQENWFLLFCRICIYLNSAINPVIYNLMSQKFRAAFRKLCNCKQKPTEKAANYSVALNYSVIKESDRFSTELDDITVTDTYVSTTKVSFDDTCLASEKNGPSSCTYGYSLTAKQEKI
The test is described as follows: Receptor internalization assay. Format: cell-based. The following applies: 100 nM TRH, after 1 h, HEK-293.

Test [2] has as its target T1, TRHR. Kind of test: Fixed-cell ELISA, GRK site phosphorylation/dephosphorylation of TRHR tail. Format: cell-based. The conditions noted are these: EC50 (GRK site phosphorylation). For orientation: ELISA stands for enzyme-linked immunosorbent assay.
In test [3] the target is T2, TRHR–β2AR chimaera (Rattus norvegicus, UniProt Q01717).
T2 sequence (Q01717 1-337): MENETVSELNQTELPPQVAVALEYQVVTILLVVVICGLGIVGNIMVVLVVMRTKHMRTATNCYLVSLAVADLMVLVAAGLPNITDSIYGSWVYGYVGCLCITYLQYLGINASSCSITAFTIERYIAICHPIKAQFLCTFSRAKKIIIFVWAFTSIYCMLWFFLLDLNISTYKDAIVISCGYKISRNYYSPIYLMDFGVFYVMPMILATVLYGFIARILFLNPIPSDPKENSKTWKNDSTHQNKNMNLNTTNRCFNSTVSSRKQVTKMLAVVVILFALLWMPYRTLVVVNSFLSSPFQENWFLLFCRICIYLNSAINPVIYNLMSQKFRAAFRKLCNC
The test is described as follows: Receptor internalization assay. Format: cell-based, rat TRHR / human β2AR. The conditions noted are these: 100 nM TRH, after 1 h, HEK-293.

A further test concerns the target β2AR (Homo sapiens, UniProt P07550). The test is described as follows: Fixed-cell ELISA, PKA site. The following applies: 10 μM H89 pre-incubated 30 min and during 5 min with 1 μM isoprenaline. Format: cell-based.
Test [4] has as its target T2, TRHR–β2AR chimaera. Kind of test: [methyl-3H]TRH binding to live cells. Also on record: species or system rat TRHR / human β2AR. The following applies: HEK-293, 90 min at 37°C, Scatchard analysis.
For another test, the system named is β2AR–TRHR chimaera. Kind of test: Receptor internalization assay. The following applies: stable HEK-293. Format: cell-based, human β2AR / rat TRHR.

Sequence of β2AR (P07550 whole entry): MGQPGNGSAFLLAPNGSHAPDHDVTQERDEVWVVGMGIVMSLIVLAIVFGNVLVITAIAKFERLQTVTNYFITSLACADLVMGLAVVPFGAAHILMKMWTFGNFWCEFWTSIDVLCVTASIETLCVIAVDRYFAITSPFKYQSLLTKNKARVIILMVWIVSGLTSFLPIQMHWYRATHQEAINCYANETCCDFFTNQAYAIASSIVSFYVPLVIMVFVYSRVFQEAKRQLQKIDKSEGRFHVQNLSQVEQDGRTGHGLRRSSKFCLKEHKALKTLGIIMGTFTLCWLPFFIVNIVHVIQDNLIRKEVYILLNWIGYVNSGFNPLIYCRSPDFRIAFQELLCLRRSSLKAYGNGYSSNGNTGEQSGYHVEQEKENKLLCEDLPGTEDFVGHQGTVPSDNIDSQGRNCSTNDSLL

By EC50 is commonly meant the midpoint of the concentration-response curve. Take `NC(=O)[C@@H]1CCCN1C(=O)[C@H](Cc1cnc[nH]1)NC(=O)[C@@H]1CCC(=O)N1` [TRH, thyrotropin-releasing hormone]: the figures for the Receptor internalized on TRHR [1] and at TRHR–β2AR chimaera [3] were 60% and 40%, respectively. Besides, at TRHR [2], the EC50 was 8 nM. Regarding `O=S(=O)(NCCNC/C=C/c1ccc(Br)cc1)c1cccc2cnccc12` [H89], the “Inhibition of isoprenaline-stimulated PKA site phosphorylation” value at β2AR was found to be 80%. Regarding [methyl-3H]TRH, the “Affinity for [methyl-3H]TRH compared with wild-type TRHR” value at TRHR–β2AR chimaera [4] is on record as “reduced affinity”.

`CC(C)NCC(O)c1ccc(O)c(O)c1` (stereo not drawn) [isoprenaline]: the “More internalization at 1 μM than at 1 nM isoprenaline” value in the test on β2AR–TRHR chimaera amounted to 2 fold.
